Reference: PubChem BioAssay AID248 (DTP/NCI, 2004)
Values joined by “and” are separate entries in the source; they are usually repeats but may differ in a detail not shown here. Equal values may be shown once. Toxic doses and inconclusive results are not listed.

System: L1210 leukemia ip in BDF1 mice, survival T/C
Test: NCI In Vivo Anticancer Drug Screen. Data for tumor model L1210 Leukemia (intraperitoneal) in B6D2F1 (BDF1) mice
Settings: endpoint: mean survival time, higher = longer survival
Method in brief: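 Antitumor effect is assessed in tumor-bearing animals. Survival in the compound arm is compared with a vehicle-dosed control arm and expressed as their quotient.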

With `C=CC(CN1CC1)OC(C)=O` (stereo unspecified) the T/C (dose: 0.25 mg/kg/injection, schedule: Q03DX Z (ip), vehicle: saline) was 104 % of control, the T/C (dose: 0.5 mg/kg/injection, schedule: Q01DX010 (oral), vehicle: saline) was 120 % of control and the T/C (dose: 0.5 mg/kg/injection, schedule: Q03DX Z (ip), vehicle: saline) was 98 % of control. The T/C (dose: 0.95 mg/kg/injection, schedule: Q01DX Z (ip), vehicle: olive oil, sesame oil, peanut oil) was 105 % of control, the T/C (dose: 0.95 mg/kg/injection, schedule: Q01DX Z (oral), vehicle: olive oil, sesame oil, peanut oil) was 100 % of control and the T/C (dose: 1.0 mg/kg/injection, schedule: Q03DX Z (ip), vehicle: saline) was 106 % of control. For the same molecule, the T/C (dose: 1.0 mg/kg/injection, schedule: Q07DX Z (ip), vehicle: saline) was 105 % of control, the T/C (dose: 1.2 mg/kg/injection, schedule: Q01DX Z (ip), vehicle: carboxymethylcellulose (CMC)) was 104 % of control and the T/C (dose: 1.24 mg/kg/injection, schedule: Q01DX Z (ip), vehicle: carboxymethylcellulose (CMC)) was 109 % of control. For the same molecule, the T/C (dose: 1.3 mg/kg/injection, schedule: Q#A X Z (ip), vehicle: other) was 112 % of control, the T/C (dose: 1.8 mg/kg/injection, schedule: Q01DX Z (ip), vehicle: carboxymethylcellulose (CMC)) was 93 % of control and 98 % of control and the T/C (dose: 1.8 mg/kg/injection, schedule: Q01DX Z (oral), vehicle: carboxymethylcellulose (CMC)) was 102 % of control. For the same molecule, the T/C (dose: 1.9 mg/kg/injection, schedule: Q01DX Z (ip), vehicle: olive oil, sesame oil, peanut oil) was 116 % of control, the T/C (dose: 1.9 mg/kg/injection, schedule: Q01DX Z (oral), vehicle: olive oil, sesame oil, peanut oil) was 103 % of control and the T/C (dose: 1.9 mg/kg/injection, schedule: Q01DX Z (oral), vehicle: other) was 102 % of control. The T/C (dose: 2.0 mg/kg/injection, schedule: Q01DX006 (iv), vehicle: saline) was 100 % of control, the T/C (dose: 2.0 mg/kg/injection, schedule: Q01DX010 (oral), vehicle: saline) was 100 % of control and the T/C (dose: 2.0 mg/kg/injection, schedule: Q02DX004 (im), vehicle: saline) was 116 % of control. For the same molecule, the T/C (dose: 2.0 mg/kg/injection, schedule: Q07DX Z (ip), vehicle: saline) was 95 % of control, the T/C (dose: 2.48 mg/kg/injection, schedule: Q01DX Z (ip), vehicle: carboxymethylcellulose (CMC)) was 109 % of control and the T/C (dose: 2.5 mg/kg/injection, schedule: Q01DX Z (oral), vehicle: saline) was 121 % of control. For the same molecule, the T/C (dose: 2.6 mg/kg/injection, schedule: Q01DX Z (ip), vehicle: other) was 117 % of control, the T/C (dose: 2.6 mg/kg/injection, schedule: Q01DX Z (sc), vehicle: other) was 119 % of control and the T/C (dose: 2.7 mg/kg/injection, schedule: Q01DX Z (ip), vehicle: carboxymethylcellulose (CMC)) was 118 % of control. The T/C (dose: 3.25 mg/kg/injection, schedule: Q01DX Z (ip), vehicle: saline) was 151 % of control, the T/C (dose: 3.25 mg/kg/injection, schedule: Q01DX Z (oral), vehicle: saline) was 161 % of control and the T/C (dose: 3.7 mg/kg/injection, schedule: Q01DX Z (ip), vehicle: carboxymethylcellulose (CMC)) was 93 % of control. For the same molecule, the T/C (dose: 3.7 mg/kg/injection, schedule: Q01DX Z (oral), vehicle: carboxymethylcellulose (CMC)) was 101 % of control and 90 % of control, the T/C (dose: 3.75 mg/kg/injection, schedule: Q01DX Z (ip), vehicle: olive oil, sesame oil, peanut oil) was 122 % of control and the T/C (dose: 3.75 mg/kg/injection, schedule: Q01DX Z (oral), vehicle: olive oil, sesame oil, peanut oil) was 105 % of control. The T/C (dose: 3.8 mg/kg/injection, schedule: Q01DX Z (ip), vehicle: olive oil, sesame oil, peanut oil) was 90 % of control, the T/C (dose: 3.8 mg/kg/injection, schedule: Q01DX Z (oral), vehicle: other) was 120 % of control and the T/C (dose: 4.0 mg/kg/injection, schedule: Q01DX006 (iv), vehicle: saline) was 108 % of control. The T/C (dose: 4.0 mg/kg/injection, schedule: Q01DX Z (sc), vehicle: other) was 122 % of control, the T/C (dose: 4.0 mg/kg/injection, schedule: Q02DX004 (im), vehicle: saline) was 120 % of control and the T/C (dose: 4.0 mg/kg/injection, schedule: Q07DX Z (ip), vehicle: saline) was 115 % of control. For the same molecule, the T/C (dose: 4.5 mg/kg/injection, schedule: Q#A X Z (ip), vehicle: other) was 102 % of control, the T/C (dose: 7.5 mg/kg/injection, schedule: Q01DX009 (ip), vehicle: saline) was 191 % of control and the T/C (dose: 7.5 mg/kg/injection, schedule: Q01DX Z (ip), vehicle: carboxymethylcellulose (CMC)) was 104 % of control. The T/C (dose: 7.5 mg/kg/injection, schedule: Q01DX Z (ip), vehicle: saline) was 259 % of control, the T/C (dose: 7.5 mg/kg/injection, schedule: Q01DX Z (oral), vehicle: carboxymethylcellulose (CMC)) was 93 % of control and 96 % of control and the T/C (dose: 7.5 mg/kg/injection, schedule: Q01DX Z (oral), vehicle: olive oil, sesame oil, peanut oil) was 111 % of control. The T/C (dose: 7.5 mg/kg/injection, schedule: Q01DX Z (oral), vehicle: saline) was 150 % of control, the T/C (dose: 7.6 mg/kg/injection, schedule: Q01DX Z (oral), vehicle: olive oil, sesame oil, peanut oil) was 150 % of control and the T/C (dose: 7.6 mg/kg/injection, schedule: Q01DX Z (oral), vehicle: other) was 88 % of control. The T/C (dose: 8.0 mg/kg/injection, schedule: Q03DX Z (ip), vehicle: other) was 153 % of control, the T/C (dose: 8.0 mg/kg/injection, schedule: Q07DX Z (ip), vehicle: saline) was 121 % of control and the T/C (dose: 9.0 mg/kg/injection, schedule: Q01DX Z (ip), vehicle: other) was 100 % of control. The T/C (dose: 10.0 mg/kg/injection, schedule: Q01DX Z (oral), vehicle: saline) was 169 % of control, the T/C (dose: 11.0 mg/kg/injection, schedule: Q01DX001 (ip), vehicle: saline) was 109 % of control and 118 % of control and the T/C (dose: 12.0 mg/kg/injection, schedule: Q03DX Z (ip), vehicle: other) was 159 % of control. The T/C (dose: 14.85 mg/kg/injection, schedule: Q01DX Z (ip), vehicle: carboxymethylcellulose (CMC)) was 96 % of control, the T/C (dose: 15.0 mg/kg/injection, schedule: Q01DX009 (ip), vehicle: saline) was 107 % of control and the T/C (dose: 15.0 mg/kg/injection, schedule: Q01DX Z (ip), vehicle: carboxymethylcellulose (CMC)) was 120 % of control. The T/C (dose: 15.0 mg/kg/injection, schedule: Q01DX Z (ip), vehicle: saline) was 111 % of control, the T/C (dose: 15.0 mg/kg/injection, schedule: Q01DX Z (oral), vehicle: carboxymethylcellulose (CMC)) was 102 % of control and 117 % of control and the T/C (dose: 15.0 mg/kg/injection, schedule: Q01DX Z (oral), vehicle: saline) was 108 % of control. The T/C (dose: 15.1 mg/kg/injection, schedule: Q01DX Z (oral), vehicle: olive oil, sesame oil, peanut oil) was 104 % of control, the T/C (dose: 15.1 mg/kg/injection, schedule: Q01DX Z (oral), vehicle: other) was 96 % of control and the T/C (dose: 16.0 mg/kg/injection, schedule: Q02DX004 (im), vehicle: saline) was 189 % of control. The T/C (dose: 17.0 mg/kg/injection, schedule: Q01DX001 (ip), vehicle: saline) was 116 % of control, the T/C (dose: 18.0 mg/kg/injection, schedule: Q03DX Z (ip), vehicle: other) was 112 % of control and the T/C (dose: 18.0 mg/kg/injection, schedule: Q07DX Z (ip), vehicle: other) was 175 % of control. The T/C (dose: 19.8 mg/kg/injection, schedule: Q01DX Z (ip), vehicle: carboxymethylcellulose (CMC)) was 96 % of control, the T/C (dose: 20.0 mg/kg/injection, schedule: Q01DX Z (oral), vehicle: saline) was 106 % of control and the T/C (dose: 25.0 mg/kg/injection, schedule: Q01DX001 (ip), vehicle: saline) was 153 % of control. For the same molecule, the T/C (dose: 27.0 mg/kg/injection, schedule: Q03DX Z (ip), vehicle: other) was 89 % of control, the T/C (dose: 28.0 mg/kg/injection, schedule: Q07DX Z (ip), vehicle: other) was 158 % of control and the T/C (dose: 30.0 mg/kg/injection, schedule: Q01DX Z (ip), vehicle: saline) was 105 % of control. The T/C (dose: 30.0 mg/kg/injection, schedule: Q01DX Z (oral), vehicle: carboxymethylcellulose (CMC)) was 101 % of control and 113 % of control, the T/C (dose: 30.0 mg/kg/injection, schedule: Q01DX Z (oral), vehicle: saline) was 111 % of control and 88 % of control and the T/C (dose: 32.0 mg/kg/injection, schedule: Q02DX004 (im), vehicle: saline) was 97 % of control. The T/C (dose: 32.0 mg/kg/injection, schedule: Q07DX Z (ip), vehicle: saline) was 210 % of control, the T/C (dose: 50.0 mg/kg/injection, schedule: Q01DX001 (ip), vehicle: saline) was 94 % of control and the T/C (dose: 60.0 mg/kg/injection, schedule: Q01DX Z (ip), vehicle: saline) was 116 % of control. For the same molecule, the T/C (dose: 60.0 mg/kg/injection, schedule: Q01DX Z (oral), vehicle: saline) was 113 % of control.

In the case of `COC1OC(COC(C)=O)C(N(C)C(C)=O)C1OC(C)=O` (stereo unspecified), the T/C (dose: 100.0 mg/kg/injection, schedule: Q01DX001 (ip), vehicle: saline) is reported as 96 % of control, the T/C (dose: 200.0 mg/kg/injection, schedule: Q01DX001 (ip), vehicle: saline) is reported as 90 % of control and the T/C (dose: 400.0 mg/kg/injection, schedule: Q01DX001 (ip), vehicle: saline) is reported as 94 % of control.

`O=C(O)c1cccc(Br)c1.[Ni]` was tested, and the T/C (dose: 25.0 mg/kg/injection, schedule: Q04DX002 (ip), vehicle: Klucel (hydroxypropylcellulose) (HPC)) was 100 % of control and the T/C (dose: 50.0 mg/kg/injection, schedule: Q04DX002 (ip), vehicle: Klucel (hydroxypropylcellulose) (HPC)) was 106 % of control.
